# According to patent publication US5736352A, “Method and apparatus for determination of the activity of cholesterol oxidase and method and apparatus for evaluation of the toxicity of chemical substances” (priority 1995, dated 1998):
# Like-named read-outs stand apart in the source and are kept apart here.
# Tested on: cholesterol oxidase
# Type: biochemical
# Details: for effect of the chemical substance on the activity of the cholesterol oxidase (toxicity), curve compared with curve 22: 1 mU/ml cholesterol oxidase, pH 7.45
# [1] = 10 micro-M substance, film 70 mol % L-α-dimyristylphosphatizircoline / 30 mol % cholesterol
# Procedure: Any chemical substrance to be evaluated on the toxicity is previously dissolved or dispersed in the cholesterol oxidase solution 12. A monomolecule film is formed on a surface of the cholesterol oxidase solution 12 by use of a monomolecule film development solution including any phospholipid and any sterol. The surface pressure of the monomolecule film is measured to find a rate in the increase of the surface pressure of the monomolecule film. […] The reduction in the activity of the cholesterol oxidase results in a reduction in the increasing rate of the surface pressure of the monomolecule film. […] This means that the toxicitic chemical substance would be present in the cholesterol oxidase solution.
# As a cholesterol oxidase solution 12, there was used a buffer solution including N-2-hydroxyethylpiperzane-N'-2-ethane sulfuric acid, where the ion strength is 0.1 and pH value is 7.45 as well as 1 mU/ml of the cholesterol oxidase is dissolved in the buffer solution. […] As a monomolecule film development solution 13, there was used a monomolecule film development solution comprising 70 mol % of L-α-dimyristylphosphatizircoline and 30 mol % of cholesterol.
# The increasing rate of the surface pressure of the monomolecule film depends upon file cholesterol oxidase activity. As described above, the activity of the cholesterol oxidase depends upon the rate of increase in the surface pressure of the monomolecule film.
Structure (SMILES),"effect of the chemical substance on the activity of the cholesterol oxidase (toxicity), curve compared with curve 22 [1]",further results
[Ca+2].[Cl-].[Cl-] [calcium chloride],no toxicity,–
CC(=O)[O-].CC(=O)[O-].[Pb+2] [lead acetate],reduces the activity of the cholesterol oxidase,"Linear Differential Coefficient (rate of increase in the surface pressure of the monomolecule film) (Cholesterol Oxidase 1 mU/ml, Lead Acetate 10 μ Mol, film 70 mol % L-α-dimyristylphosphatizircoline / 30 mol % cholesterol, five minutes after film was prepared, curve 23 (curve 22 without substance: 5.5 × 10^-2)): 4.2 × 10^-2 mN/mmin."
CCCCCCCCCCCCOS(=O)(=O)[O-].[Na+] [sodium dodecylsulfate],–,"effect of the chemical substance on the activity of the cholesterol oxidase (toxicity), curve compared with curve 22 (1 micro-M substance, film 70 mol % L-α-di-palmytylphosphatizir-ethanol / 30 mol % pregnenolone): reduces the activity of the cholesterol oxidase"
[Cl-].[Cl-].[Zn+2] [zinc chloride],reduces the activity of the cholesterol oxidase,–
[Cl][Hg][Cl] [mercury chloride],–,"effect of the chemical substance on the activity of the cholesterol oxidase (toxicity), curve compared with curve 22 (10 micro-M substance, film 70 mol % L-α-dipalmytylphosphatizircoline / 30 mol % dihydrocholesterol): reduces the activity of the cholesterol oxidase"
